Where “and” joins values, the source holds several entries; their conditions need not be identical. Equal values may be shown once.
Tests used:
[1] = test system: cerebral ischemia-reperfusion in rats; assay: Cerebral ischemia-reperfusion rat model, comparative test of calcium salt YN17 and sodium salt YN17-ST; assay type: in vivo; details: 10 mg/kg tail vein after 1 h ischemia; 24 h; Mean ± SEM; model 51.37 ± 2.66
Protocol: Establishment of cerebral ischemia-reperfusion rat models. Rats were anesthetized with pentobarbital sodium (45 mg/kg), the neck skin was prepared, the surgical skin was disinfected with iodophor, the neck skin was cut in the middle, the neck muscles were separated, and the left common carotid artery (CCA) was separated until the branches of the internal carotid artery (ICA) and external carotid artery (ECA) were exposed. […]
Determination of the extent of cerebral infarction. […] The area of each brain slice and the area of the infarcted area were measured by Image Pro software, and the percentage of the area of focuses of infarct to the total area was calculated.
The models were established and administered according to the similar method described above (YN17 (10 mg/kg) and YN17-ST (10 mg/kg) were injected into the tail vein immediately after blood supply to the middle cerebral artery of the rats was restored, and 5% glucose was injected into the tail vein in the model group. The rats were euthanized under anesthesia 24 hours after drug administration, and the extent of cerebral infarction was measured. The results were as follows: […]

[2] = test system: cerebral ischemia-reperfusion rat models; assay: Cerebral ischemia-reperfusion (MCAO) rat model, different doses of YN17; assay type: in vivo, rats; details: for Symptom score: 24 h after administration, 0-5 points, model 3.3 ± 0.7; for Symptom score / Percentage of whole brain tissue infarction (%): Mean ± SD; for content of GSH-px in serum / content of SOD in serum: 24 h after modeling, p<0.001; for Percentage of whole brain tissue infarction (%): 24 h, TTC staining, model 17.61 ± 7.45
Protocol: Establishment of cerebral ischemia-reperfusion rat models. Rats were anesthetized with pentobarbital sodium (45 mg/kg), the neck skin was prepared, the surgical skin was disinfected with iodophor, the neck skin was cut in the middle, the neck muscles were separated, and the left common carotid artery (CCA) was separated until the branches of the internal carotid artery (ICA) and external carotid artery (ECA) were exposed. The proximal end of the common carotid artery was ligated, the distal end of the common carotid artery was clamped with an artery clip, an incision was made between the two ligated ends of the common carotid artery, the MCAO suture was inserted, and the suture was loosely ligated to the common carotid artery. The MCAO suture was inserted into the internal carotid artery, so that the suture reached the branches of the internal carotid artery to the middle cerebral artery (MCA), blocking the blood supply of the MCA and causing ischemia, the MCAO suture was fixed, and the surgical incision was sutured. After 1 h of ischemia, the MCAO suture was withdrawn into the common carotid artery to restore blood supply to the middle cerebral artery.
Drug administration. After the surgery, the rats were immediately injected with YN17 (5 mg/kg, 10 mg/kg and 20 mg/kg) via the tail vein, while the positive control group was injected with 3 mg/kg of edaravone via the tail vein. The rats were euthanized under anesthesia 24 hours after drug administration.
Animal neurobehavioral assessment. 24 hours after administration, the activity of the rats after landing was observed, and the behavior disorders of the rats were scored. The scoring method was as follows: • 0 points: no loss of neurological function and normal activity; • 1 point: failure to fully extend the left forepaw on the opposite side of the lesion; • 2 points: failure of the paralyzed side to resist the thrust from the opposite side; • 3 points: circling to the left side when crawling (tail-chasing sign); • 4 points: falling to the paralyzed side when shaking or walking; and • 5 points: trance or loss of consciousness.
Determination of the extent of cerebral infarction. The rats were euthanized under anesthesia 24 hours after drug administration. The brain was removed and rinsed with normal saline at 4° C. The brain was frozen at −80° C. for 10 min, and coronal slices with a thickness of 2 mm were cut from posterior to anterior, incubated in a 1% TTC solution for 10 min at 37° C., and fixed with formalin overnight after staining. The photos of the brain slices were taken and saved. The area of each brain slice and the area of the infarcted area were measured by Image Pro software, and the percentage of the area of focuses of infarct to the total area was calculated.

H9c2 cardiomyocytes [3] = assay: Flow cytometry (Annexin V-FITC) for cell apoptosis detection (OGD/R); assay type: cell-based; details: OGD/R + 80 μg/ml, 24 h pretreatment; control 7.9%, model 20.3%
Protocol: (§1) Establishment of cellular oxygen-glucose deprivation/reperfusion (OGD/R) models. […] ischemia was simulated by incubation in a three-gas incubator (95% N2, 5% CO2) using sugar-free culture medium for 8-h culture, followed by transfer to a normal CO2 incubator for 12-h culture to simulate reperfusion.
Hoechst 33342 staining method for cell apoptosis detection. H9c2 cardiomyocytes were inoculated into a 6-well plate at a density of 2×10^5 cells/well. When the cells were completely adhered to the wall and grew to an appropriate degree of confluence, the cells were divided into a control group, a YN17 80 μg/ml group, a model group, and an OGD/R+80 μg/ml group. In the blank group, 2 mL of a fresh culture medium was added to each well and cultured in a CO2 incubator. The same amount of sugar-free DMEM was added to each well in the model group. […] After the treatment of each group, staining was performed according to the instructions of the Hoechst 33342 staining solution, and the nucleus morphology and fluorescence intensity of each group were observed under a fluorescence microscope.
Flow cytometry for cell apoptosis detection. […] After the treatment of each group, staining was performed according to the instructions of the Annexin V-FITC cell apoptosis detection kit, and cell apoptosis was detected by a flow cytometer.

H9c2 cells = assay: Survival rate of H9c2 cells after oxygen-glucose deprivation/reperfusion (OGD/R); assay type: cell-based; details: 20, 40 and 80 μg/ml
Protocol: as §1

[4] = Stability tests (accelerated and long-term) of salt and crystal forms; assay type: physicochemical; details: for Relevant substance, Single impurity / Relevant substance, Total impurities / Content determination: HPLC; for Content determination: content of C27H32O16; for Calcium element: ICP-MS; for pH: solution 5 mg per 1 ml in water
Protocol: The crystal form A for the stability data in the following table is prepared by the method of Example 1. The intermediate was adopted, water was used as a system, calcium carbonate was added for reaction, the solution was filtered and then allowed to stand for crystallization, and subjected to suction filtration, and the filter cake was washed with water and dried by suction, and dried under reduced pressure at 30° C. for 4-6 hours to obtain the crystal form A.
For stability tests and inspection methods, please see the attached stability solutions and quality standards.
[Character] Ocular estimate method: this sample was a yellow powder.
[Examination] PH value: this sample was taken and added with water to make a solution containing 5 mg per 1 ml. According to the pH value determination method (Chinese Pharmacopoeia 2020 Edition Fourth General Rule 0631), the pH value should be 5.0-7.0.
Relevant substances. Determination of relevant substances was performed according to high-performance liquid chromatography (Chinese Pharmacopoeia 2020 Edition Fourth General Rule 0512).
Test sample solution. An appropriate amount of this sample was taken, accurately weighed, dissolved by addition of a diluent, and diluted quantitatively to prepare a solution containing 1.0 mg per 1 ml. The solution was shaken well, filtered through a microporous filter membrane (0.45 μm), and the subsequent filtrate was taken.
Chromatographic conditions. Octadecylsilane bonded silica gel was used as a filler: […] potassium dihydrogen phosphate solution (1.36 g of potassium dihydrogen phosphate was taken into a 1000 mL measuring flask, dissolved by addition of water, and diluted to the scale) was used as a mobile phase A, methanol was used as a mobile phase B, and gradient elution was performed according to the following table; the detection wavelength was 375 nm; and the injection volume was 5 μl.
Limit If there were impurity peaks in the chromatogram of the test sample solution, the area of a single impurity peak shall not be greater than 0.005 times (0.5%) the total peak area, and the sum of the areas of each impurity peak shall not be greater than 0.015 times (1.5%) the total peak area. Chromatographic peaks less than 0.02% of the peak area of the main component can be ignored.
Water content This sample was taken, and according to the method for water content determination (Chinese Pharmacopoeia 2020 Edition Fourth General Rule 0832 First Method), the water content shall not exceed 15.0%.
Calcium element Determination of calcium element was performed according to inductively coupled plasma mass spectrometry (Chinese Pharmacopoeia 2020 Edition Fourth General Rule 0412).
[Content determination] Content determination was performed according to high-performance liquid chromatography (Chinese Pharmacopoeia 2020 Edition Fourth General Rule 0512).
Chromatographic conditions. Octadecylsilane bonded silica gel was used as a filler, methanol-acetonitrile-water-phosphoric acid (26:2:72:0.04) was used as a mobile phase, and detection wavelength was 403 nm; and the injection volume was 10 μl.
Determination method. The test sample solution and comparative sample solution were accurately measured, and injected into the liquid chromatograph separately, and the chromatogram was recorded. The content of C27H32O16 in the test sample was calculated by the peak area according to the external standard method.

H9c2 cardiomyocytes [5] = assay: Hoechst 33342 staining method for cell apoptosis detection (OGD/R); assay type: cell-based
Protocol: as §1
Hoechst 33342 staining method for cell apoptosis detection. H9c2 cardiomyocytes were inoculated into a 6-well plate at a density of 2×10^5 cells/well. When the cells were completely adhered to the wall and grew to an appropriate degree of confluence, the cells were divided into a control group, a YN17 80 μg/ml group, a model group, and an OGD/R+80 μg/ml group. In the blank group, 2 mL of a fresh culture medium was added to each well and cultured in a CO2 incubator. The same amount of sugar-free DMEM was added to each well in the model group. After culture in a three-gas incubator for 8 h, the sugar-free DMEM was replaced with a fresh culture medium and transferred to a CO2 incubator for additional 12-h culture. The administration group was pretreated with different concentrations of YN17 for 24 h before OGD/R modeling. […] After the treatment of each group, staining was performed according to the instructions of the Hoechst 33342 staining solution, and the nucleus morphology and fluorescence intensity of each group were observed under a fluorescence microscope.

[6] = Accelerated 6 months, 40° C. ± 2° C./75% ± 5% RH
[7] = Long-term 6 months, 25° C. ± 2° C./60% ± 5% RH
[8] = 3 mg/kg tail vein, listed as edaravone

Row | Compound | Percentage of hemispheric tissue infarction (%) [1] | Character ([4]; 0 months) | Water content ([4]; 0 months) [%] | Relevant substance, Single impurity ([4]; 0 months) [%] | Relevant substance, Total impurities ([4]; 0 months) [%] | Content determination ([4]; 0 months) [%] | pH ([4]; 0 months) | Character [4, 6] | Water content [4, 6] [%] | Relevant substance, Single impurity [4, 6] [%] | Relevant substance, Total impurities [4, 6] [%] | Content determination [4, 6] [%] | pH [4, 6] | Character [4, 7] | Water content [4, 7] [%] | Relevant substance, Single impurity [4, 7] [%] | Relevant substance, Total impurities [4, 7] [%] | Content determination [4, 7] [%] | pH [4, 7] | also measured
1 | O=C(/C=C/c1ccc(O)cc1)C1=C(O)C([C@@H]2O[C@H](CO)[C@@H](O)[C@H](O)[C@H]2O)=C([O-])[C@@](O)([C@@H]2O[C@H](CO)[C@@H](O)[C@H](O)[C@H]2O)C1=O.[Ca+2].[OH-] [YN17, (S)-3,6-dihydroxy-4-((E)-3-(4-hydroxyphenyl)acryloyl)-5-oxo-6-((2R,3R,4S,5S,6R)-3,4,5-trihydroxy-6-(hydroxymethyl)tetrahydro-2H-pyran-2-yl)-2-((2S,3R,4R,5S,6R)-3,4,5-trihydroxy-6-(hydroxymethyl)tetrahydro-2H-pyran-2-yl)cyclohexyl-1,3-diene-1-hydroxycalcium] | 20.47% and 20.47 ± 3.56 % | Yellow | 9.9 | 0.25 | 0.25 | 97.0 | 5.9 | Yellow | 10.1 | 0.25 | 0.54 | 96.5 | 5.8 | Yellow | 10.7 | 0.25 | 0.32 | 96.7 | 5.9 | Symptom score ([2]; 5 mg/kg tail vein): 2.8 ± 1.0; content of GSH-px in serum ([2]; 5 mg/kg, 10 mg/kg and 20 mg/kg): significantly increase; content of SOD in serum ([2]; 10 mg/kg and 20 mg/kg): significantly increase; apoptosis rate (H9c2 cardiomyocytes [3]): 13.3%; survival rate of cells (H9c2 cells): can improve the survival rate of cells in different degrees; Calcium element ([4]; 0 months): 3.19%; Calcium element [4, 6]: 3.26%; Calcium element [4, 7]: 3.21%; Stability (comparison of salt forms, relevant substances and contents) ([4]; summary of Table 1 and Table 2): very stable; apoptosis characteristics of nuclei without OGD/R (H9c2 cardiomyocytes [5]; 80 μg/ml group without OGD/R): no obvious apoptosis characteristics; number of densely and heavily stained cell nuclei (apoptosis) (H9c2 cardiomyocytes [5]; OGD/R + 80 μg/ml, 24 h pretreatment): significantly reduced
2 | O=C(C=Cc1ccc(O)cc1)C1=C(O)C(C2OC(CO)C(O)C(O)C2O)=C([O-])C(O)(C2OC(CO)C(O)C(O)C2O)C1=O.[Na+] (stereo not shown) [YN17-ST] | 23.35% and 23.35 ± 7.37 % | Yellow | 2.3 | 0.36 | 0.95 | 95.3 | 6.0 | Yellow | 7.3 | 6.41 | 9.53 | 81.5 | 6.8 | Yellow | 5.7 | 1.86 | 3.02 | 91.7 | 6.4 | 
3 | CC1=NN(c2ccccc2)C(=O)C1 [Edaravone, edaravone] |  |  |  |  |  |  |  |  |  |  |  |  |  |  |  |  |  |  |  | Percentage of whole brain tissue infarction (%) ([2]; 3 mg/kg tail vein): 10.58 ± 5.31 %; Percentage of whole brain tissue infarction (%) [2, 8]: significantly inhibit; Symptom score ([2]; 3 mg/kg tail vein): 2.1 ± 1.3; Symptom score [2, 8]: significantly improve; content of GSH-px in serum ([2]; 3 mg/kg): significantly increase; content of SOD in serum ([2]; 3 mg/kg): significantly increase
